Measurements as given in patent US20250129044A1 (priority 2021, published 2025).

target: sodium channel isoforms (Homo sapiens, UniProt P35498); type: cell-based; details: area under the sodium current trace, step from −120 mV to 0 mV, HEK cells
Method: The sodium channel isoforms of interest are stably expressed in Human Embryonic Kidney Cells and the currents that flow through those channels in response to a depolarizing voltage clamp step from −120 mV to 0 mV are measured in the presence of increasing concentrations of the chemical agents. The area under the sodium current trace which correlates to the magnitude of sodium flux through the cell membrane is used to quantify the effects on gating of the channels. Other parameters that are measured in the assay include the peak current, time constant of open state inactivation and the voltage dependence of steady state inactivation properties. The concentration responses are used to determine potency of each chemical agents effects on modulating the sodium channel isoform gating. Such techniques are known to those skilled in the art, and may be developed, using current technologies, into low or medium throughput assays for evaluating compounds for their ability to modulate sodium channel behaviour.

SMILES	Empirical Emax	EC50
CC(C)c1ncc(C(=O)Nc2c(-c3ccccc3F)ccnc2C2CCC3(CC2)CC3)cn1 [Example 28, N-[4-(2-fluorophenyl)-2-spiro[2.5]octan-6-yl-3-pyridyl]-2-isopropyl-pyrimidine-5-carboxamide]	++ (++ indicates a value from 2.0 up to 5.0 μM)	–
CC(C)c1ncc(C(=O)Nc2c(-c3ccccc3F)ccnc2[C@H]2CC[C@@H](C(F)(F)F)CC2)cn1 [Example 29, N-[4-(2-fluorophenyl)-2-[4-(trifluoromethyl)cyclohexyl]-3-pyridyl]-2-isopropyl-pyrimidine-5-carboxamide]	+ (+ indicates a value less than 2.0 μM)	–
CC(C)c1ncc(C(=O)Nc2c(-c3ccccc3F)ccnc2[C@H]2CC[C@H](C(F)(F)F)CC2)cn1 [Example 30, N-[4-(2-fluorophenyl)-2-[4-(trifluoromethyl)cyclohexyl]-3-pyridyl]-2-isopropyl-pyrimidine-5-carboxamide]	++ (++ indicates a value from 2.0 up to 5.0 μM)	–
CC(C)c1ncc(C(=O)Nc2c(-c3ccccc3F)ccnc2C2CC(F)(F)CN2C(=O)OC(C)(C)C)cn1 (stereo not drawn) [Example 31, tert-butyl 4,4-difluoro-2-[4-(2-fluorophenyl)-3-[(2-isopropylpyrimidine-5-carbonyl)amino]-2-pyridyl]pyrrolidine-1-carboxylate]	+ (+ indicates a value less than 2.0 μM)	–
CC(C)c1ncc(C(=O)Nc2c(-c3ccccc3F)ccnc2C2CC(F)(F)C2)cn1 [Example 32, N-(2-(3,3-difluorocyclobutyl)-4-(2-fluorophenyl)pyridin-3-yl)-2-isopropylpyrimidine-5-carboxamide]	+++ (+++ indicates a value from 5.0 up to 7.5 μM)	–
CC(C)c1ncc(C(=O)Nc2c(-c3ccccc3F)ccnc2[C@H]2CC[C@@H](F)CC2)cn1 [Example 33]	+++ (+++ indicates a value from 5.0 up to 7.5 μM)	–
CC(C)c1ncc(C(=O)Nc2c(-c3ccccc3F)ccnc2[C@H]2CC[C@H](F)CC2)cn1 [Example 34]	+++ (+++ indicates a value from 5.0 up to 7.5 μM)	–
CC(C)c1ncc(C(=O)Nc2c(-c3ccccc3F)ccnc2C2CC(C(F)(F)F)C2)cn1 (stereo not drawn) [Example 35, N-(4-(2-fluorophenyl)-2-(3-(trifluoromethyl)cyclobutyl)pyridin-3-yl)-2-isopropylpyrimidine-5-carboxamide]	+++ (+++ indicates a value from 5.0 up to 7.5 μM)	–
CC(C)c1ncc(C(=O)Nc2c(-c3ccccc3F)ccnc2C2CC3(COC3)C2)cn1 [Example 36, N-(4-(2-fluorophenyl)-2-(2-oxaspiro[3.3]heptan-6-yl)pyridin-3-yl)-2-isopropylpyrimidine-5-carboxamide]	+++ (+++ indicates a value from 5.0 up to 7.5 μM)	–
CO[C@H]1CC[C@@H](c2nccc(-c3ccccc3F)c2NC(=O)c2cnc(C(C)C)nc2)CC1 [Example 38]	+ (+ indicates a value less than 2.0 μM)	–
CO[C@H]1CC[C@H](c2nccc(-c3ccccc3F)c2NC(=O)c2cnc(C(C)C)nc2)CC1 [Example 39]	+ (+ indicates a value less than 2.0 μM)	–
CC(C)c1ncc(C(=O)Nc2c(-c3ccccc3)ccnc2C2CCCN2)cn1 (stereo not drawn) [Example 40, 2-isopropyl-N-(4-phenyl-2-(pyrrolidin-2-yl)pyridin-3-yl)pyrimidine-5-carboxamide]	+ (+ indicates a value less than 2.0 μM)	–
C1=C(c2nccc(-c3ccccc3)c2-c2nc3c([nH]2)COCC3)CCOC1 [Example 44, 2-(2-(3,6-dihydro-2H-pyran-4-yl)-4-phenylpyridin-3-yl)-3,4,6,7-tetrahydropyrano[3,4-d]imidazole]	+ (+ indicates a value less than 2.0 μM)	–
c1ccc(-c2ccnc(C3CCOCC3)c2-c2nc3c([nH]2)COCC3)cc1 [Example 45, 2-(4-phenyl-2-(tetrahydro-2H-pyran-4-yl)pyridin-3-yl)-3,4,6,7-tetrahydropyrano[3,4-d]imidazole]	+ (+ indicates a value less than 2.0 μM)	–
FC1(F)CCC(c2nccc(-c3ccccc3)c2-c2nc3c([nH]2)COCC3)CC1 [Example 46, 2-(2-(4,4-difluorocyclohexyl)-4-phenylpyridin-3-yl)-3,4,6,7-tetrahydropyrano[3,4-d]imidazole]	+++ (+++ indicates a value from 5.0 up to 7.5 μM)	–
Fc1ccc(F)c(-c2ccnc(C3CCC(F)(F)CC3)c2-c2nc3c([nH]2)COCC3)c1 [Example 47, 2-(2-(4,4-difluorocyclohexyl)-4-(2,5-difluorophenyl)pyridin-3-yl)-3,4,6,7-tetrahydropyrano[3,4-d]imidazole]	+++ (+++ indicates a value from 5.0 up to 7.5 μM)	–
Fc1ccc(F)c(-c2ccnc(C3CCC(F)(F)C3)c2-c2nc3c([nH]2)COCC3)c1 (stereo not drawn) [Example 48, 2-(2-(3,3-difluorocyclopentyl)-4-(2,5-difluorophenyl)pyridin-3-yl)-3,4,6,7-tetrahydropyrano[3,4-d]imidazole]	+++ (+++ indicates a value from 5.0 up to 7.5 μM)	–
O=C(Nc1ccc(Cl)nc1)c1c(-c2ccccc2F)ccnc1C1CCCC1 [Example 49, N-(6-chloropyridin-3-yl)-2-cyclopentyl-4-(2-fluorophenyl)nicotinamide]	+ (+ indicates a value less than 2.0 μM)	–
O=C(Nc1ccc(Cl)nc1)c1c(-c2ccccc2F)ccnc1C1=CCCC1 [Example 50, N-(6-chloropyridin-3-yl)-2-(cyclopent-1-en-1-yl)-4-(2-fluorophenyl)nicotinamide]	+ (+ indicates a value less than 2.0 μM)	–
O=C(Nc1ccc(Cl)nc1)c1c(-c2ccccc2F)ccnc1C1=CCOCC1 [Example 51]	+ (+ indicates a value less than 2.0 μM)	–
CC(C)c1ccc(NC(=O)c2c(-c3ccccc3F)ccnc2C2=CCOCC2)cn1 [Example 52]	+ (+ indicates a value less than 2.0 μM)	–
CC(C)c1ccc(NC(=O)c2c(-c3ccccc3F)ccnc2C2CCOCC2)cn1 [Example 53, 4-(2-fluorophenyl)-N-(6-isopropylpyridin-3-yl)-2-(tetrahydro-2H-pyran-4-yl)nicotinamide]	++ (++ indicates a value from 2.0 up to 5.0 μM)	–
CC(C)c1ncc(C(=O)Nc2c(C3=CCCCO3)ccnc2C2CCC(F)(F)CC2)cn1 [Example 54, N-(2-(4,4-difluorocyclohexyl)-4-(3,4-dihydro-2H-pyran-6-yl)pyridin-3-yl)-2-isopropylpyrimidine-5-carboxamide]	++++ (++++ indicates a value greater than 7.5)	–
CC(C)c1ncc(C(=O)Nc2c(-c3ccccn3)ccnc2C2CCC(F)(F)CC2)cn1 [Example 55, N-(2′-(4,4-difluorocyclohexyl)-[2,4′-bipyridin]-3′-yl)-2-isopropylpyrimidine-5-carboxamide]	+++ (+++ indicates a value from 5.0 up to 7.5 μM)	–
O=C(Nc1c(-c2cc(F)ccc2F)ccnc1C1CCC(F)(F)CC1)c1cnc(N2C3CCC2COC3)nc1 [Example 159, 2-(3-oxa-8-azabicyclo[3.2.1]octan-8-yl)-N-(2-(4,4-difluorocyclohexyl)-4-(2,5-difluorophenyl)pyridin-3-yl)pyrimidine-5-carboxamide]	–	< 1000 nM
CN1C[C@H]2CC[C@@H](C1)N2c1ncc(C(=O)Nc2c(-c3cc(F)ccc3F)ccnc2C2CCC(F)(F)CC2)cn1 [Example 160, N-(2-(4,4-difluorocyclohexyl)-4-(2,5-difluorophenyl)pyridin-3-yl)-2-((1R,5S)-3-methyl-3,8-diazabicyclo[3.2.1]octan-8-yl)pyrimidine-5-carboxamide]	–	< 1000 nM
O=C(Nc1c(-c2cc(F)ccc2F)ccnc1C1CCC(F)(F)CC1)c1cnc(N2C3CCCC2CC3)nc1 [Example 165, 2-(8-azabicyclo[3.2.1]octan-8-yl)-N-(2-(4,4-difluorocyclohexyl)-4-(2,5-difluorophenyl)pyridin-3-yl)pyrimidine-5-carboxamide]	–	< 1000 nM
O=C(Nc1c(-c2cc(F)ccc2F)ccnc1C1CCC(F)(F)CC1)c1cnc(N2CC3CC(C3)C2)nc1 [Example 166, 2-(3-azabicyclo[3.1.1]heptan-3-yl)-N-(2-(4,4-difluorocyclohexyl)-4-(2,5-difluorophenyl)pyridin-3-yl)pyrimidine-5-carboxamide]	–	< 1000 nM
O=C(Nc1c(-c2cc(F)ccc2F)ccnc1C1CCC(F)(F)CC1)c1cnc(N2CC3CC(C2)O3)nc1 [Example 167, 2-(6-oxa-3-azabicyclo[3.1.1]heptan-3-yl)-N-(2-(4,4-difluorocyclohexyl)-4-(2,5-difluorophenyl)pyridin-3-yl)pyrimidine-5-carboxamide]	–	< 1000 nM
O=C(Nc1c(-c2cc(F)ccc2F)ccnc1C1CCC(F)(F)CC1)c1cnc(N2C3CCC2CC3)nc1 [Example 177, 2-(7-azabicyclo[2.2.1]heptan-7-yl)-N-(2-(4,4-difluorocyclohexyl)-4-(2,5-difluorophenyl)pyridin-3-yl)pyrimidine-5-carboxamide]	–	< 1000 nM
